These results are taken from patent publication EP0447704A1, “N-Acylated azacyclic compounds, processes for their preparations and their use as medications” (Smithkline Beecham Farmaceutici S.p.A., priority 1990, dated 1991).

Counter-ions that a name gives are not always drawn.

Experiment [1] has as its system mice. As to the kind of experiment: p-phenylquinone-induced abdominal writhing test in mice. The format is in vivo, Male Charles River mice (Swiss Strain). Conditions: subcutaneous, 20 min pretreatment, graded protection, limits in brackets; for ED50: Mus musculus, sc, 20 min, read-out: ANALGESIA M. WRITHING (GRADED) ED50. As for the experimental part:
A) p-phenylquinone-induced abdominal writhing test in mice
The methodology employed is based on that described by Sigmund et al, Proc. Soc. Exptl. Biol. 95, 729/1957, modified by Milne and Twomey, Agents and Actions, 10, 31/1980.
Male Charles River mice (Swiss Strain), 25-36g body weight, were used. Animals were allowed food and water ad libitum and were randomized into groups of 10 prior to experimentation. Test compounds were dissolved in either distilled water or distilled water plus 0.1 M AMS, and administered by the subcutaneous route in a final volume of 10 ml/Kg. Control animals received 10 ml/Kg of the appropriate vehicle alone. Following a pretreatment period of 20 min., mice were injected intraperitoneally with p-phenylquinone, 2 mg/Kg at 37 °C in a final volume of […]. […] During this period the number of abdominal writhing responses per animal were recorded where writhing consists of an intermittent contraction of the abdomen associated with hind leg extension.
The degree of antinociceptive protection afforded by the test compound was determined as the mean number of writhing responses observed in the treated group (T) expressed as a percentage of the mean number of writhing responses in the control group (C) according to the following formula: [1-(T/C]x100% = % graded protection
(In general: An intraperitoneal irritant provokes the stretching counted in writhing tests.)

Experiment [2] deals with mice. As to the kind of experiment: Tail-flick test in mice. Conditions: for ED50: Mus musculus, 0.5 h, read-out: ANALGESIA M. TAIL-FLICK (QUANTAL) ED50; for ED50 / ANALGESIA M. TAIL-FLICK (QUANTAL) ED50: subcutaneous, 30 min pretreatment, quantal protection, limits in brackets; for ANALGESIA M. TAIL-FLICK (QUANTAL) ED50: 30 min; for M. TAIL-FLICK (QUANTAL) % protection: at 10 mg. In kind it is in vivo, Male Charles River mice (Swiss Strain). Here is the method: B) Tail-flick test in mice
The methodology employed is based on that described by D'Amour and Smith, J. Pharmacol. Exp. Ther. 72, 74/1941.
Male Charles River mice (Swiss Strain), 22-34g body weight were used. Animals were allowed food and water ad libitum and were randomized into groups of 10 prior to experimentation.
Test compounds were dissolved in either distilled water or distilled water plus 0.1 M AMS and administered by the subcutaneous route in a final volume of 10 ml/Kg. Control animals received 10 ml/kg of the appropriate vehicle alone. Following a pretreatment period of 30 min., the mice were again placed under the heat source and the reaction tine re-determined.
Percentage quantal protection was determined as the number of mice in which the reaction time was doubled compared to pretreatment values, expressed as a percentage of the total number of mice in the group.

Turning to `CC1(C)CCCN(C(=O)Cc2ccc(C(F)(F)F)cc2)C1CN1CCCC1` (racemic) [Example 10, 1-(4-trifluoromethylphenyl)acetyl-2-(pyrrolidin-1-yl)methyl-3,3-dimethyl piperidine hydrochloride], the ED50 – broadly, the dose that gives a 50% effect, or the effect in half of the subjects – in the experiment on mice [1] came to 0.023 mg/kg; in the experiment with mice [2] (sc), 0.116 mg/kg. Turning to `CC1CCCN(C(=O)Cc2ccc(Cl)c(Cl)c2)C1CN1CCCC1` (single isomer, unassigned) [Example 1, 1-(3,4-dichlorophenyl)acetyl-2-(pyrrolidin-1-yl)methyl-3-methyl piperidine hydrochloride hemihydrate diasteroisomer A], in the experiment with mice [2], the “ANALGESIA M. TAIL-FLICK (QUANTAL) ED50” value is 0.405 (0.230-0.607) mg/Kg sc. Consider `CC1CCCN(C(=O)Cc2ccc(Cl)c(Cl)c2)C1CN1CCCC1` (single isomer, unassigned) [Example 2, 1-(3,4-dichlorophenyl)acetyl-2-(pyrrolidin-1-yl)methyl-3-methyl piperidine hydrochloride diasteroisomer B], for which the “ANALGESIA M. WRITHING (GRADED) ED50” value with mice [1] is reported as 0.091 (0.075-0.112) mg/Kg sc. Further, in the experiment with mice [2], the “ANALGESIA M. TAIL-FLICK (QUANTAL) ED50” value is recorded as 0.147 (0.091-0.237) mg/Kg sc. As to `CC1CCCC(CN2CCCC2)N1C(=O)Cc1ccc(Cl)c(Cl)c1` (single isomer, unassigned; diastereoisomer a) [Example 6, 1-(3,4-dichlorophenyl)acetyl-2-(pyrrolidin-1-yl)methyl-6-methyl piperidine hydrochloride hemihydrate Diastereoisomer A], the “M. TAIL-FLICK (QUANTAL) % protection at single dose” value in the experiment with mice [2] (sc, 1.78 mg/Kg) was “(1.78 mg/Kg 60%)”. On to `O=C(Cc1ccc(Cl)c(Cl)c1)N1CCCC(O)C1CN1CCCC1` (single isomer, unassigned; diastereoisomer a) [Example 7, 1-(3,4-dichlorophenyl)acetyl-2-(pyrrolidin-1-yl)methyl-3-hydroxy piperidine hydrochloride diastereoisomer A trans], for which the ED50 amounted to 0.141 mg/kg with mice [1] and 0.825 mg/kg with mice [2] (sc). Also, the “DURATION OF ACTION M. TAIL-FLICK (GRADED) % ACTIVITY AT MTFQ ED50 30'” value in the experiment with mice [2] (dose = mouse tail-flick quantal ED50, 30') worked out at 87%. For the same compound, the “DURATION OF ACTION M. TAIL-FLICK (GRADED) % ACTIVITY AT MTFQ ED50 90'” value in the experiment with mice [2] (dose = mouse tail-flick quantal ED50, 90') was determined as 39%. Take `O=C(Cc1ccc(Cl)c(Cl)c1)N1CCCC(O)C1CN1CCCC1` (single isomer, unassigned; diastereoisomer b) [Example 8, 1-(3,4-dichlorophenyl)acetyl-2-(pyrrolidin-1-yl)methyl-3-hydroxy piperidine hydrochloride diastereoisomer B cis]: in the experiment on mice [2] (sc), the “M. TAIL-FLICK (QUANTAL) % protection” value is “at 10 mg = 20% protection”. Take `CC1(C)CCCN(C(=O)Cc2ccc3c(c2)CCCC3=O)C1CN1CCCC1` (stereo not drawn) [Example 13, 1-[1-oxo-3,4-dihydro-(2H)-napht-6-yl]acetyl-2-(pyrrolidin-1-yl)methyl-3,3-dimethyl piperidine]: in the experiment on mice [2] (sc), the “M. TAIL-FLICK (QUANTAL) % protection” value is on record as “at 10 mg = 60% protection”.
